According to PMC8022858, “Discovery of bone morphogenetic protein 7-derived peptide sequences that attenuate the human osteoarthritic chondrocyte phenotype” (Molecular Therapy. Methods & Clinical Development, 2021):

Tests used:
OA-HAC pool = assay: Alanine scanning of peptide p[63-82], gene expression and bioactivity score; format: cell-based, human; conditions: pool of 18 OA-HACs, 100 nM; for impact of alanine substitution on peptide p[63-82] bioactivity (bioactivity score): 24 h, score = sum of fold change of COL10A1, ALPL, MMP13, COL2A1, NKX3-2 versus wild-type (Figure 5C)
Description: Figure 5 Molecular characterization of peptides p[63−82] and p[113−132] (A) A pool of OA-HACs (n = 4 donors) was transfected with a scrambled siRNA or with an NKX3-2 siRNA (100 nM siRNA) and cultured for 24 h. Cultures were then exposed to peptide p[63−82] or p[113−132] (100 nM peptide). Samples were harvested 24 h later and analyzed for the expression of the indicated mRNAs (normalized to 28S rRNA). (B) SW1353 chondrocytic cells were transfected with BRE (SMAD1/5/8 reporter) or CAGA12 (SMAD2/3 reporter) firefly luciferase-reporter plasmids. A CMV-Gaussia plasmid was cotransfected as a transfection control. Cells were then cultured for 24 h and subsequently exposed to control, p[63−82], or p[113−132] for 8 h. Firefly and Gaussia bioluminescence were measured in cells and medium (respectively), and relative light units (RLUs) of firefly luciferase were normalized for the Gaussia luciferase signal. The normalized firefly luciferase signal of the control condition was set at 1, and peptide conditions were calculated relative to the control condition (FL/GL). Error bars represent mean ± SEM; statistical significance for peptide conditions versus siScrambled or siNKX3-2 (A) or control condition (B) as determined by unpaired two-tailed Student’s t test is represented as ∗p < 0.05, ∗∗p < 0.01, and ∗∗∗p < 0.001. (C) An alanine scanning library of peptide p[63−82] was synthesized, and the pool of 18 OA-HACs originally used for the full library scanning (Figure 1) was exposed to individual peptides from the alanine scanning library (100 nM peptide) for 24 h. An alanine-scanning bioactivity score (sum of the fold change gene expression of COL10A1, ALPL, MMP13, and COL2A1 plus NKX3-2 of the alanine-substituted peptides versus the wild-type p[63−82] peptide) was calculated for each alanine substitution in the amino acid sequence of peptide p[63−82] and is represented by the height of each letter on the y axis (data in Figure S4). (D) Multiple sequence alignment of the human BMP7 p[63−82] peptide with the homologous region in BMP7 of other species.
We aimed to further understand the sequence dependency of the peptide bioactivity. Peptide p[63−82] was derived from the central region within BMP7, and since this yielded a limited series of bioactive peptides (Figures 1B and S2), we further focused our analyses on peptide p[63−82]. To determine which amino acids are important for the bioactivity of peptide p[63−82], an alanine-scanning peptide library was synthesized, based on systematic alanine substitution of consecutive amino acids in the peptide p[63−82] sequence (Table S1). This alanine-scanning library was then screened by exposing an OA-HAC pool (the same pool that was used for the full library scanning in Figure 1) for 24 h to 100 nM of each peptide in the alanine-scanning library. The bioactivity of each peptide was determined by measuring gene expression of COL10A1, ALPL, MMP13, COL2A1, and NKX3-2 (Figure S4). Changes in the bioactivity of the alanine-scanning library peptides were combined into a “bioactivity score” of each individual substituted amino acid in the parental p[63−82] peptide (Figure 5C). […] The region in BMP7 from which peptide p[63−82] was derived and the G7 position in it are evolutionary highly conserved, as determined by sequence alignment of BMP7 sequences from various animal species (Figure 5D).
For the peptide-screening and alanine-scanning experiments, cDNA was prepared using the Cells-to-Ct kit (Invitrogen) according to the manufacturer’s protocol. For the other experiments, cells or homogenized tissues (Mikro-Dismembrator; Braun Biotech International) were lysed in TRIzol (Life Technologies) and RNA isolation and cDNA synthesis were performed as described earlier.[27]^,[57] Quantitative real-time PCR was performed using Takyon qPCR Master Mix plus blue for SYBR Green (Eurogentec). […]

[1] = tested on: primary human OA articular chondrocytes (OA-HACs); assay: BMP7 peptide library screening, quantitative real-time PCR of OA chondrocyte phenotype genes; format: cell-based; conditions: pool of 18 OA-HAC donors, scrambled peptides 100 nM, 24 h (Figure 2G)
Description: To investigate whether BMP7 harbors potential peptide sequences that improve the OA chondrocyte phenotype, a peptide library was designed from the mature 139 amino acid-long human BMP7 sequence (Table S2). The peptide library was designed as 20-mer peptides with 2 amino acid intervals (18 amino acid overlap) between individual peptides and with all cysteine residues substituted by serine residues to avoid uncontrolled oxidation of cysteine groups. This yielded 61 individual peptides covering the complete mature human BMP7 sequence (Figure 1A). The peptide library was screened using a pool of primary human OA articular chondrocytes (OA-HACs) from 18 individual donors. Prior to pooling, individual OA-HAC isolates were tested for their responsiveness to BMP7 (Figure S1). The screening was conducted by exposing the OA-HAC pool for 24 h to a concentration series (1, 10, 100, or 1,000 nM) of each peptide from the library. […] This is defined as reduced expression of collagen type X alpha 1 chain (COL10A1), alkaline phosphatase (ALPL), Runt-related transcription factor 2 (RUNX2), ADAMTS5, MMP13, prostaglandin-endoperoxide synthase 2 or cyclooxygenase-2 (COX-2), and interleukin 6 (IL6) and increased expression of SRY-box transcription factor 9 (SOX9), COL2A1, and NKX3-2. […] Representative peptides inducing the above gene expression characteristics in OA-HACs were selected from both regions for further investigation. These were peptide p[63−82] and p[113−132] from the library, covering amino acids 63−82 and 113−132 of the mature BMP7 amino acid sequence. The complete quantitative real-time PCR data for peptides p[63−82] and p[113−132] […] For the two candidate peptides, we validated data using an independent cohort of three OA-HACs exposed to 100 nM of p[63−82] or p[113−132] or a combination of both peptides. […] Taken together, two regions in BMP7 were identified delivering peptide sequences that are able to improve the OA chondrocyte phenotype.
Figure 1 BMP7 peptide library screening on primary human OA articular chondrocytes (OA-HACs) (A) Schematic representation of the design of the human BMP7 peptide library. (B) COL10A1 mRNA expression in samples from the library screening on a pool of 18 OA-HACs individually exposed for 24 h to the peptides (100 nM) in the library. Data are shown as compared to the control condition (white bar) and full-length BMP7 (1 nM; gray bar). The two blue bars represent candidate peptides p[63−82] and p[113−132]. […] Error bars represent mean ± SEM, and statistical significance for peptide condition or BMP7 versus control condition as determined by unpaired two-tailed Student’s t test is represented as ∗p < 0.05, ∗∗p < 0.01, and ∗∗∗p < 0.001; NS, not significant.
Figure 2 Bioactivity of BMP7-derived peptides p[63−82] and p[113−132] on OA-HACs Complete peptide library screening quantitative real-time PCR dataset for peptides p[63−82] and p[113−132] is presented. (A) SOX9, COL2A1, and NKX3-2 mRNA expression in the 18 OA-HAC pool exposed to 1,000, 100, 10, or 1 nM of peptide p[63−82] and p[113−132] is shown and presented relative to control (black bars) and alongside full-length BMP7 (white bars). (B) Similar to (A) but for chondrocyte hypertrophy-associated genes RUNX2, COL10A1, and ALPL. (C) Similar to (A) but for cartilage extracellular matrix remodeling-associated genes MMP13 and ADAMTS5 and inflammation-related genes COX-2 and IL-6. (D) Glycosaminoglycan (GAG) content (normalized to total protein content) on an independent cohort of three individual OA-HAC donors treated with 100 nM peptides p[63−82] and p[113−132] for 24 h. (E) Alkaline phosphatase (ALP) activity (normalized to total protein content) in similar samples from (D). (F) Prostaglandin E2 (PGE2) levels in culture supernatant in similar samples from (D). […]

Substance: H-AAAYSEGESAFPLNSYMNAT-OH [Y3A, alanine-scanning peptide of p[63−82], substitution position 03]
- impact of alanine substitution on peptide p[63-82] bioactivity (bioactivity score) (OA-HAC pool): important impact

Substance: H-AAYYSEAESAFPLNSYMNAT-OH [G7A, alanine-scanning peptide of p[63−82], substitution position 07]
- response on chondrocyte hypertrophy (OA-HAC pool; 24 h (Figure S4)): reciprocal response
- impact on the chondrocyte phenotype-modulating action of the peptide (OA-HAC pool; 24 h (Figures 5C, S4)): largest impact
- impact of alanine substitution on peptide p[63-82] bioactivity (bioactivity score) (OA-HAC pool): important impact

Substance: H-AAYYSEGASAFPLNSYMNAT-OH [E8A, alanine-scanning peptide of p[63−82], substitution position 08]
- impact of alanine substitution on peptide p[63-82] bioactivity (bioactivity score) (OA-HAC pool): important impact

Substance: H-AAYYSEGESAAPLNSYMNAT-OH [F11A, alanine-scanning peptide of p[63−82], substitution position 11]
- impact of alanine substitution on peptide p[63-82] bioactivity (bioactivity score) (OA-HAC pool): important impact

Substance: H-AAYYSEGESAFPLNSAMNAT-OH [Y16A, alanine-scanning peptide of p[63−82], substitution position 16]
- impact of alanine substitution on peptide p[63-82] bioactivity (bioactivity score) (OA-HAC pool): important impact

Substance: H-AAYYSEGESAFPLNSYANAT-OH [M17A, alanine-scanning peptide of p[63−82], substitution position 17]
- impact of alanine substitution on peptide p[63-82] bioactivity (bioactivity score) (OA-HAC pool): important impact

Substance: H-VYISNVDDYSNKFLLKVRSM-OH [scrambled p[113−132], scrambled version of peptide p[113−132], reference compound]
- sequence specificity: expression of COL2A1, RUNX2, COL10A1, and COX-2 [1]: neither one of them was able to recapitulate the bioactivity
